Measurements: patent publication US12528812B2 (Genentech, Inc., priority 2020, dated 2026)

How the values were obtained:
[1] = molecular target: T1, recombinant human JAK1 kinase domain protein (Residues 854-1154) (Homo sapiens, UniProt P23458); test: JAK1 biochemical assay (LabChip mobility shift, Ki); details: read-out: Biochem JAK1 Ki
T1 construct: human JAK1 kinase domain protein (Residues 854-1154); purchased Proteros Biostructures GmbH (Martinsried, Germany); host or cells: insect cells

[2] = system: IL-13-stimulated P-STAT6 in TF-1 human erythroleukemia cells; test: P-STAT6 TF-1 + IL-13 assay (JAK1 pathway); type: cell-based; details: Homo sapiens, TF-1, TF-1 cells, IL13 stimulation; read-out: Cellular JAK1 PSTAT6 TF-1 + IL13
Description: (§1) TF-1 human erythroleukemia cells (ATCC′; Manassas, VA; Catalog No. CRL-2003™) were grown in Roswell Park Memorial Institute (RPMI) medium supplemented with 10% heat-inactivated fetal bovine serum (FBS), 2 ng/mL granulocyte-macrophage colony-stimulating factor, 1× non-essential amino acids (NEAA), and 1 mM sodium pyruvate. The day before the assay, the cultures were transferred to Opti-MEM™, 1×NEAA, 1 mM sodium pyruvate, and 0.5% charcoal-stripped FBS (starve medium). Inhibitor stock solutions (5 mM in DMSO) were serially diluted 1:2 in DMSO to generate a 10-point concentration titration (at 500× test concentration), which was further diluted by a 50-fold dilution in Assay Medium (RPMI containing 1×NEAA and 1 mM sodium pyruvate) to generate a 10× concentration titration (in 2% DMSO). The cells (300,000 cells/well in 35 μL of Assay Medium) were seeded in 384-well Greiner plates. Diluted inhibitor at 10× concentration (5 μL) was added to the cells and the plates were incubated for 30 minutes at 37° C. in a humidified incubator. Cells were stimulated with the human recombinant cytokine at the respective EC90 concentrations, as previously determined for each individual lot. For the phosphorylated signal transducer and activator of transcription 6 (P-STAT6) TF-1+Interleukin-13 (IL-13) assay, 10 μL of 250 ng/mL IL-13 (R&D Systems; Minneapolis, MN) was added to the cells, which were then incubated for 10 minutes at 37° C. For the P-STAT5 TF-1+Erythropoietin (EPO) assay, 10 μL of 110 IU/mL EPO (Gibco Life Technologies, Catalog No. PHC2054) was added to the cells, which were then incubated for […] at 37° C. For both assays, the incubation was followed by addition to the cells of 5 μL of ice-cold 10× cell lysis buffer (Cell Signaling Technologies; Danvers, MA; Catalog No. 9803S) containing 1 mM phenylmethylsulfonyl fluoride (PMSF). Assay plates were frozen at −80° C. for a minimum of 1 hour. In the IL-13 assay, P-STAT6 was measured by coating goat anti-rabbit (GAR) plates (Meso Scale Discovery [MSD]; Rockville, MD; Catalog No. MSD L21RA-1) with rabbit anti-human total STAT6 antibody (Cell Signaling Technologies; Catalog No. 9362S), incubating the cell lysates in the coated plates overnight at 4° C., and then detecting with mouse anti-P-STAT6 (Tyr641) Clone 16E12 antibody (MilliporeSigma; Burlington, MA; Catalog No. 05-590, custom labeled by MSD with SULFO-tag) using standard MSD plate processing, washing, and detection protocols. In the EPO assay, P-STAT5 was detected using the phospho-STAT5a,b Whole Cell Lysate Kit (MSD; Catalog No. K150IGD-1). The electrochemiluminescence (ECL) signal of wells was read on the MESO SECTOR 5600 (MSD) reader.
(§2) Data analysis was performed by subtracting the negative control (cytokine stimulated and 20 μM control inhibitor-treated cells) mean ECL value from the ECL value of all wells, determining percent of control for test compound well ECL values relative to the positive control (cytokine stimulated and DMSO-treated cells) mean ECL value, and determining the IC50 for test compounds with a four-parameter logistic fit model as shown in Equation 4.

[3] = system: EPO-stimulated P-STAT5 in TF-1 human erythroleukemia cells; test: P-STAT5 TF-1 + EPO assay (JAK2 pathway); type: cell-based; details: Homo sapiens, TF-1, TF-1 cells, EPO stimulation; read-out: Cellular JAK2 PSTAT5 TF-1 + EPO
Description: as §1, §2

[4] = system: IL-13-stimulated STAT6 phosphorylation in human lung bronchial epithelial BEAS-2B cell line; test: P-STAT6 BEAS-2B + IL-13 cell assay; type: cell-based; details: Homo sapiens, BEAS-2B, BEAS2B cells, IL13 stimulation; read-out: Cellular JAK1 PSTAT6 BEAS2B + IL13
How it was run: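 Phospho-STAT6 (Tyr641) was quantified in lysates by MSD electrochemiluminescence after human IL-13 challenge (250 ng/mL stock, 15 min, 37 °C). Before that, BEAS-2B cells cultured 48 h had 1 h compound exposure over 10 concentrations. Percent of control was fitted to a four-parameter logistic model to give IC50.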

[5] = molecular target: Recombinant human JAK2 kinase domain protein (Residues 812-1132) (Homo sapiens, UniProt O60674); test: JAK2 biochemical assay (LabChip mobility shift, Ki); details: Biochem JAK2 Ki
Chain of Recombinant human JAK2 kinase domain protein (Residues 812-1132) (O60674 812-1132): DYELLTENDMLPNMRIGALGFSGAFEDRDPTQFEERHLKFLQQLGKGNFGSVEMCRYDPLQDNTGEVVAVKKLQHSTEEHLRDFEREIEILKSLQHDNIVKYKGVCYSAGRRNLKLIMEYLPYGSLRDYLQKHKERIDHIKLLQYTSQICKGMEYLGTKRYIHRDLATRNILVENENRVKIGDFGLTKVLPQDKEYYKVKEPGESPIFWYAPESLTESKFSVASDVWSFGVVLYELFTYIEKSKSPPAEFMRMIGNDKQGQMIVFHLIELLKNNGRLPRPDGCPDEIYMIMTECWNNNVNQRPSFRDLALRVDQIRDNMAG

T1 sequence (P23458 854-1154): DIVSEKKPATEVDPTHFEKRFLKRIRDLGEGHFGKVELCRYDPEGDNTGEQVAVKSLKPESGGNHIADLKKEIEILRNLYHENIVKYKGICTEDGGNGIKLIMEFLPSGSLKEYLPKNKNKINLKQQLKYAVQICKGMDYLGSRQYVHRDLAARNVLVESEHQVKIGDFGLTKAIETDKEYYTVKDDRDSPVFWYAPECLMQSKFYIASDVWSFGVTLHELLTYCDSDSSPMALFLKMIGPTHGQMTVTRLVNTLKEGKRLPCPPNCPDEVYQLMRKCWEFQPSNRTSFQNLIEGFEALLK

Structure (SMILES)	Ki [1] [nM]	IC50 [2] [nM]	IC50 [3] [nM]	Ki [5] [nM]	IC50 [4] [nM]
Cn1cc(NC(=O)c2cnn3cccnc23)c(-c2cc(Oc3cnn(C4COC4)c3)ccc2OC(F)F)n1 [Example 114, N-[3-[2-(difluoromethoxy)-5-[1-(oxetan-3-yl)pyrazol-4-yl]oxy-phenyl]-1-methyl-pyrazol-4-yl]pyrazolo[1,5-a]pyrimidine-3-carboxamide]	0.84	6	29	0.49	29
CN1CC(O)(Cn2cc(Oc3ccc(OC(F)F)c(-c4nn(C)cc4NC(=O)c4cnn5cccnc45)c3)cn2)C1 [Example 128, N-[3-[2-(difluoromethoxy)-5-[1-[(3-hydroxy-l-methyl-azetidin-3-yl)methyl]pyrazol-4-yl]oxy-phenyl]-1-methyl-pyrazol-4-yl]pyrazolo[1,5-a]pyrimidine-3-carboxamide]	0.52	51	52	0.41	30
CC(C)N1CC(O)(Cn2cc(Oc3ccc(OC(F)F)c(-c4nn(C)cc4NC(=O)c4cnn5cccnc45)c3)cn2)C1 [Example 201, N-[3-[2-(difluoromethoxy)-5-[1-[(3-hydroxy-1-isopropyl-azetidin-3-yl)methyl]pyrazol-4-yl]oxy-phenyl]-1-methyl-pyrazol-4-yl]pyrazolo[1,5-a]pyrimidine-3-carboxamide]	0.46	14	21	0.34	34
CN1CC(O)(c2cccc(Oc3ccc(OC(F)F)c(-c4nn(C)cc4NC(=O)c4cnn5cccnc45)c3)n2)C1 [Example 190, N-[3-[2-(difluoromethoxy)-5-[[6-(3-hydroxy-l-methyl-azetidin-3-yl)-2-pyridyl]oxy]phenyl]-1-methyl-pyrazol-4-yl]pyrazolo[1,5-a]pyrimidine-3-carboxamide]	1.4	180	130	1	38
CN(C)Cc1cncc(Oc2ccc(OC(F)F)c(-c3nn(C)cc3NC(=O)c3cnn4cccnc34)c2)c1 [Example 133, N-[3-[2-(difluoromethoxy)-5-[[5-[(dimethylamino)methyl]-3-pyridyl]oxy]phenyl]-1-methyl-pyrazol-4-yl]pyrazolo[1,5-a]pyrimidine-3-carboxamide]	1.1	13	24	1.2	62
Cn1cc(NC(=O)c2cnn3cccnc23)c(-c2cc(Oc3cccc(C4CNCCO4)c3)ccc2OC(F)F)n1 (centres unmarked) [Example 82, N-[3-[2-(difluoromethoxy)-5-(3-morpholin-2-ylphenoxy)phenyl]-1-methyl-pyrazol-4-yl]pyrazolo[1,5-a]pyrimidine-3-carboxamide]	0.58	8.4	15	0.6	51

Stronger by Ki [1], values ahead:

Ki [1] [nM]	IC50 [2] [nM]	IC50 [3] [nM]	Ki [5] [nM]	Structure (SMILES)	IC50 [4] [nM]
0.13	24	68	0.076	O=C(Nc1c[nH]nc1-c1cc(Oc2cn[nH]c2)ccc1OC(F)F)c1cnn2cccnc12 [Example 173, N-[3-[2-(difluoromethoxy)-5-(1H-pyrazol-4-yloxy)phenyl]-1H-pyrazol-4-yl]pyrazolo[1,5-a]pyrimidine-3-carboxamide]	82
0.44	5.4	8.6	0.28	Cc1ccc(Oc2ccc(OC(F)F)c(-c3nn(C)cc3NC(=O)c3cnn4cccnc34)c2)cc1C(=O)N(C)C [Example 49, N-[3-[2-(difluoromethoxy)-5-[3-(dimethylcarbamoyl)-4-methyl-phenoxy]phenyl]-1-methyl-pyrazol-4-yl]pyrazolo[1,5-a]pyrimidine-3-carboxamide]	20
0.24	8.2	4.8	0.25	CN1CC(O)(c2cccc(Oc3ccc(OC(F)F)c(-c4nn(C)cc4NC(=O)c4cnn5cccnc45)c3)c2)C1 [Example 79, N-[3-[2-(difluoromethoxy)-5-[3-(3-hydroxy-l-methyl-azetidin-3-yl)phenoxy]phenyl]-1-methyl-pyrazol-4-yl]pyrazolo[1,5-a]pyrimidine-3-carboxamide]	8
0.32	12	38	0.21	CN1CC[C@H](O)[C@@H](n2cc(Oc3ccc(OC(F)F)c(-c4nn(C)cc4NC(=O)c4cnn5cccnc45)c3)cn2)C1 (stereo in doubt) [Example 184, N-[3-[2-(difluoromethoxy)-5-[1-[rac-(3S,4S)-4-hydroxy-l-methyl-3-piperidyl]pyrazol-4-yl]oxy-phenyl]-1-methyl-pyrazol-4-yl]pyrazolo[1,5-a]pyrimidine-3-carboxamide]	47
0.25	5.2	3	0.26	CN1CC(O)(c2cc(F)cc(Oc3ccc(OC(F)F)c(-c4nn(C)cc4NC(=O)c4cnn5cccnc45)c3)c2)C1 [Example 96, N-[3-[2-(difluoromethoxy)-5-[3-fluoro-5-(3-hydroxy-1-methyl-azetidin-3-yl)phenoxy]phenyl]-1-methyl-pyrazol-4-yl]pyrazolo[1,5-a]pyrimidine-3-carboxamide]	13
0.4	4.6	7.6	0.24	Cn1cc(NC(=O)c2cnn3cccnc23)c(-c2cc(Oc3cnn(C(F)F)c3)ccc2OC(F)F)n1 [Example 132, N-[3-[2-(difluoromethoxy)-5-[1-(difluoromethyl)pyrazol-4-yl]oxy-phenyl]-1-methyl-pyrazol-4-yl]pyrazolo[1,5-a]pyrimidine-3-carboxamide]	14
0.3	7	13	0.14	Cn1cc(NC(=O)c2cnn3cccnc23)c(-c2cc(Oc3cnn(CCO)c3)ccc2OC(F)F)n1 [Example 113, N-[3-[2-(difluoromethoxy)-5-[1-(2-hydroxyethyl)pyrazol-4-yl]oxy-phenyl]-1-methyl-pyrazol-4-yl]pyrazolo[1,5-a]pyrimidine-3-carboxamide]	20
